Results as given in patent publication US11224223B2, “Feeding deterrence of pests such as Hemiptera, Lepidoptera and Coleoptera” (BEDOUKIAN RESEARCH, INC., priority 2012, dated 2022).

Legend:
Format in all cases: in vivo
Aphis gossypii = assay: Melon aphid repellency on leaf choice assays; settings: 3% compound in a Triton X:Water solution; n=100; control 50/50
[1] = system: Leptinotarsa decemlineata-Colorado Potatoe Beetles; assay: Choice feeding assay on potato leaf disks; settings: 3% compound, larvae, 24 h
Tineola spp. = assay: Clothes moth feeding damage on silk fabric, choice test; settings: 3% compound; silk disks; late instar larvae; 24 hours; control 50/50
Sitostroga cerealella = assay: Feeding repellent assay for Angoumois larva on treated rice; settings: 10% compound in a 5% Ethanol:95% water solution, third instar larvae, 1 week
[2] = system: brown marmorated stink bugs (BMSB); assay: Repellency as feeding deterrence in brown marmorated stink bugs, treated filter paper with green bean; settings: compound at 3.5% in a 57% Ethanol:43% water solution; control 38%
Method: A test was designed to measure the repellency as feeding deterrence in brown marmorated stink bugs (BMSB). Five replicates of 5 BMSBs were introduced into test arenas, containing one 60 mm×15 mm Petri dish with treated filter papers in which a food source (green bean) was attached, at the start of the test. The small Petri dishes containing the treated filter paper and food source were covered with a fitted Petri dish lid in between observation times, and were removed 5 minutes before each observation time to prevent stink bugs from feeding until sated. The distribution of the BMSBs was observed and documented hourly for 5 hours.

SMILES	Number of Aphids Choosing each Treatment: Treated (Aphis gossypii)	Number of Aphids Choosing each Treatment: Untreated (Aphis gossypii)	% Repellency [1]	Individuals choosing to feed on each disk: Treated (Tineola spp.)	Individuals choosing to feed on each disk: Untreated (Tineola spp.)	% Antifeedent Activity (Sitostroga cerealella)	Repellency averaged over 5 hours [2]
CC/C(C)=C/CC/C(C)=C/CC1CCCC1=O (stereo not shown) [Methyl Apritone]	30	70	15%	20	80	70%	–
CCCCCC1C(=O)CCC1CC(=O)OCCC (stereo not shown) [Propyl Dihydrojasmonate]	30	70	15%	20	80	60%	100%
